In patent publication US12590096B2, “Imidazo[2,1-f][1,2,4]triazin-4-amine as TLR8 agonists” (BeOne Medicines | GmbH, priority 2019, dated 2026):
Where two headings read alike, the source gives them in different places.

Experiments:
[1] = molecular target: T1, human TLR 8 protein in HEK-blue hTLR 8 tool cell line (Homo sapiens, UniProt Q9NR97); assay: TLR8 stimulation determined by HEK-Blue Detection (NF-κB/SEAP reporter); format: cell-based; settings: HEK-Blue hTLR8 cells, 16 h incubation, relative to maximum activation by Resiquimod or motolimod; read-out: EC50 (nmol)
T1 construct: expressed in transfected cells; host or cells: HEK293 (HEK-Blue hTLR8)
T1 sequence (Q9NR97 27-1041): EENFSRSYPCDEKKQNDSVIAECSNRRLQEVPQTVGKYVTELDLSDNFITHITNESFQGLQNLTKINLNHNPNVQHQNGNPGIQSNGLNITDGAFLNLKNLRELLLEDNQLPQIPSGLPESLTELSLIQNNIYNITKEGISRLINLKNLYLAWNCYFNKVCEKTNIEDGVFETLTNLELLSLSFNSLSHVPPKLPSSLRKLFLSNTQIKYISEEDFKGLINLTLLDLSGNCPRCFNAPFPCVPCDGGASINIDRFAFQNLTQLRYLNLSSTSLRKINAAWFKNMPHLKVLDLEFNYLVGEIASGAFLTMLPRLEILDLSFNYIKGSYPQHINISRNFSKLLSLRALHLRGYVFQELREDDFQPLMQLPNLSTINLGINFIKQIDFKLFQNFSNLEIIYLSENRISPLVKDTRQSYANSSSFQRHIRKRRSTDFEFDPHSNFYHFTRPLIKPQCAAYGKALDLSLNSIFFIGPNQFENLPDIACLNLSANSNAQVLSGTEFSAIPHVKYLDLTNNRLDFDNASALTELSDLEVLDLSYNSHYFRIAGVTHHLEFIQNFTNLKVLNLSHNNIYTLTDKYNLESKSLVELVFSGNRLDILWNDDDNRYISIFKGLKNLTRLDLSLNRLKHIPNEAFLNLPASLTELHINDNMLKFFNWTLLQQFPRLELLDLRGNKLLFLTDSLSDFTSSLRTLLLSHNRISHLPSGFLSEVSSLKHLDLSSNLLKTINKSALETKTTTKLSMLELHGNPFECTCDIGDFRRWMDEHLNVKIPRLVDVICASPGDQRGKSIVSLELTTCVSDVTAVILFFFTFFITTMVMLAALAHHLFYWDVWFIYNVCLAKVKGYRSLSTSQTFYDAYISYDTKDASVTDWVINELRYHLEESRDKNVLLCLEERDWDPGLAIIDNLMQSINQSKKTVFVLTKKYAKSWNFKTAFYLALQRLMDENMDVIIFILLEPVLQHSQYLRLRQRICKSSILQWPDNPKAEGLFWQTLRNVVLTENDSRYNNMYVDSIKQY
From the text: TLR8 Stimulation Determined by HEK-Blue Detection
This assay was designed to study the stimulation of human TLR 8 protein in HEK-blue hTLR 8 tool cell line by monitoring the activation of NF-κB. HEK-blue hTLR8 cells were obtained by co-transfection of hTLR8 gene and optimized secretory embryonic alkaline phosphatase (SEAP) reporter gene into HEK293 cells. SEAP reporter gene was put under the control of […] minimal promoter fused with five NF-κB and AP-1-binding sites. NF-κB and AP-1 were activated by stimulation with TLR 8 ligand, thus inducing the expression of SEAP. The level of SEAP can be easily determined by HEK-Blue Detection (a cell culture medium that allows real-time detection of SEAP). HEK-Blue Detection comprises all nutrients needed for cell growth and specific SEAP color substrates. The hydrolysis of substrate by SEAP produces purple/blue color which can be measured by spectrophotometer.
When growing to 50-80% confluence, HEK-Blue hTLR7/8 cells were plated into 96-well plates (costar 3599) at a density of 40,000 cells/well. Then, the compound serially diluted at 10 points with a final concentration ranging from 1 nM to 10 μm in 0.1% DMSO/HEK-Blue Detection was added. The plates were then incubated in 5% CO2 at 37° C. for 16 h. Optical density at 620-655 nm was read on BMG PHERAstar FSX instrument. The EC50 of each compound was determined by calculating the maximum activation percentage identified using Resiquimod or motolimod.
The EC50 of the tested compound of the present invention is as follows.

[2] = system: PBMC (peripheral blood monocyte); assay: PBMC determination: cytokines in culture supernatant measured by HTRF; format: cell-based; settings: human PBMC, 24 h
Protocol: Determination of PBMC (Peripheral Blood Monocyte) Cell Preparation, Separation and Culture
Human whole blood was collected from healthy volunteers using BD Vacutainer® Lithium Heparin Tubes. PBMCs were prepared using Ficoll separation medium (GE Healthcare) by SopMate™ (STEMCELL). The cell survival rate was over 85% as monitored by Countstar. PBMCs were cultured in RPMI 1640 (Gibco) 10% (v/v) FBS (Gibco), 1×MEM NEAA (Gibco), 1× GlutaMAX (Gibco), 1 mM sodium pyruvate (Gibco), 50 uM 2-mercaptoethanol (sigma), and 100 U/ml penicillin-streptomycin (Thermo fisher Scientific).
PBMCs were plated into 96-well plates (costar 3894) with a density of 2×10^5 cells/well. Then, TLR7/8 compound was added, and serial dilution was carried out at ten points. The final concentration in 0.1% DMSO/RPMI 1640 ranged from 1 nM to 10 μM. Then, the plates were incubated in 5% CO2 at 37° C. for 24 h.
HTRF (Homogeneous Time-Resolved Fluorescence)
After the specified time point, according to the manufacturers recommendations, the cytokines in the cell culture supernatant were measured by Human IL6 kit (cisbio) and Human TNF alpha kit (cisbio). The EC50 of each compound was determined by calculating the maximum activation percentage identified using Resiquimod or Motolimod.

[3] = Human IL6 kit (HTRF), read-out: IL6 (EC50)
[4] = Human TNF alpha kit (HTRF), read-out: TNF-alpha (EC50)

EC50 [1] [µM]	Compound	EC50 [2, 3] [µM]	EC50 [2, 4] [µM]
0.047	CCC[C@H](C)Oc1nc(N)c2ncc(CC3CCN(CCN)CC3)n2n1 [Compound B38, (S)-7-((1-(2-aminomethyl)piperidin-4-yl)methyl)-2-(pent-2-yloxy)imidazo[2,1-f][1,2,4]triazin-4-amine]	0.028	0.039
0.019	CCC[C@H](C)Oc1nc(N)c2ncc(CC3CCN(CCNC)CC3)n2n1 [Compound B12, (S)-7-((1-(2-(methylamino)ethyl)piperidin-4-yl)methyl)-2-(pent-2-yloxy)imidazo[2,1-f][1,2,4]triazin-4-amine]	0.014	0.01
0.026	CCC[C@H](C)Oc1nc(N)c2ncc(C[C@H]3C[C@@H](N)C3)n2n1 [Compound B30, 7-(((1s,3S)-3-aminocyclobutyl)methyl)-2-(((S)-pent-2-yl)oxy)imidazo[2,1-f][1,2,4]triazin-4-amine]	0.085	0.153
0.063	CCC[C@H](C)Oc1nc(N)c2ncc(CC3CCCNCC3)n2n1 (stereo partly drawn) [Compound B25, 7-(azepan-4-ylmethyl)-2-(((S)-pent-2-yl)oxy)imidazo[2,1-f][1,2,4]triazin-4-amine]	0.236	0.456
